# From patent US11471456B2, “Formulations comprising heterocyclic protein kinase inhibitors” (Sumitomo Pharma Oncology, Inc., priority 2019, dated 2022)
# Where two headings read alike, the source gives them in different places.
# Experiments:
# [1] = DVS (hygroscopicity) of free base and salts; assay type: physicochemical
# [2] = Oral bioavailability of the compound of structure (I) in rats with different excipients; assay type: in vivo; conditions: for bioavailability: rat, in vivo, po
# [3] = Phase 1 first-in-human escalating dose study in patients with advanced solid tumors; assay type: in vivo
# Protocol: The study is currently enrolling Cohort 3 at a dose level of 1080 mg qd.
# [4] = HPLC solubility in SGF, FaSSIF, FeSSIF at 37° C.; assay type: physicochemical; conditions: thermodynamic from solid
# Protocol: HPLC Method. The chromatographic conditions for HPLC are summarized below.
# The samples were then centrifuged and filtered. Saturated solutions were diluted with MeOH:H2O=1:2 (v:v), and the concentrations were determined by HPLC. The final pH of the saturated solutions was tested.
smiles,measurement,setting,value
"CC(C)(O)C1CCC(Nc2ccc3ncc(-c4cccc(C(F)(F)F)c4)n3n2)CC1.Cl [Hydrochloric acid salt, 2-((1R,4R)-4-((3-(3-(trifluoromethyl)phenyl)imidazo[1,2-b]pyridazin-6-yl)amino)cyclohexyl)propan-2-ol hydrochloride]","DVS (weight gain, %)",[1],2.83%
same,hygroscopicity by DVS compared with methanesulfonic acid salt,[1],much lower hygroscopicity
"CC(C)(O)[C@H]1CC[C@H](Nc2ccc3ncc(-c4cccc(C(F)(F)F)c4)n3n2)CC1 [compound of structure (I), 2-((1R,4R)-4-((3-(3-(trifluoromethyl)phenyl)imidazo[1,2-b]pyridazin-6-yl)amino)cyclohexyl)propan-2-ol]",Oral Bioavailability (% F),"[2]; Dry Powder (capsule), administered alone",poor bioavailability
same,bioavailability,"[2]; Dry Powder (capsule), administered alone, read-out: Oral Bioavailability (% F)",0%
same,bioavailability,"[2]; excipient 10% EtOH/10% PEG300/20% HS15, read-out: Oral Bioavailability (% F)",38%
same,bioavailability,"[2]; excipient 10% EtOH/40% PG, read-out: Oral Bioavailability (% F)",2%
same,bioavailability,"[2]; excipient 10% PS-20, read-out: Oral Bioavailability (% F)",39%
same,bioavailability,"[2]; excipient 10% PS-20/50% PEG400, read-out: Oral Bioavailability (% F)",15%
same,bioavailability,"[2]; excipient Corn Oil, read-out: Oral Bioavailability (% F)",0%
same,bioavailability,"[2]; excipient HPβCD, read-out: Oral Bioavailability (% F)",11%
same,"changes in hematological parameters including platelets, WBC counts and hemoglobin","[3]; 480 mg qd and 720 mg qd cohorts (3 patients each), first cycle, preliminary data",no marked changes in hematological parameters
same,"side effects, regardless of causality, occurring with a frequency equal to 2 or greater","[3]; 480 mg qd and 720 mg qd cohorts, preliminary data","diarrhea, nausea and vomiting"
same,severity of the side effect events,"[3]; all Grade 1, except one event that was Grade 2",mild in severity
same,solubility at 0.5 h,"[4]; simulated gastric fluid, SGF",1360 µg/mL
same,solubility at 2 h,"[4]; simulated gastric fluid, SGF",1270 µg/mL
same,solubility at 24 h,"[4]; simulated gastric fluid, SGF",903 µg/mL
same,solubility at 0.5 h,[4]; FaSSIF,10.4 µg/mL
same,solubility at 2 h,[4]; FaSSIF,9.81 µg/mL
same,solubility at 24 h,[4]; FaSSIF,7.91 µg/mL
same,solubility at 0.5 h,[4]; FeSSIF,96.8 µg/mL
same,solubility at 24 h,[4]; FeSSIF,91.5 µg/mL
same,"DVS (weight gain, %)",[1],1.60%
same,hygroscopicity by DVS compared with methanesulfonic acid salt,[1],much lower hygroscopicity
